Laboratory results: article PMC8818024 (Structure (London, England : 1993), 2021)
“Also recorded” adds a separate entry of the source.

Columns and labels:
Arr1 = Arr1 (Bos taurus, UniProt P08168); assay: Tyrosine fluorescence quenching assay of Arr1; type: binding, bovine; conditions: intrinsic quenching assay, no Mg2+; Figure 6E-F, Table S1
bovine arrestin-1 = assay: cwEPR of spin-labeled arrestin C-tail mutants; conditions: spin-labeled Arr1 mutants, room temperature, compared with apo-Arr1; Figure 3D

Sequence of Arr1 (P08168 whole entry): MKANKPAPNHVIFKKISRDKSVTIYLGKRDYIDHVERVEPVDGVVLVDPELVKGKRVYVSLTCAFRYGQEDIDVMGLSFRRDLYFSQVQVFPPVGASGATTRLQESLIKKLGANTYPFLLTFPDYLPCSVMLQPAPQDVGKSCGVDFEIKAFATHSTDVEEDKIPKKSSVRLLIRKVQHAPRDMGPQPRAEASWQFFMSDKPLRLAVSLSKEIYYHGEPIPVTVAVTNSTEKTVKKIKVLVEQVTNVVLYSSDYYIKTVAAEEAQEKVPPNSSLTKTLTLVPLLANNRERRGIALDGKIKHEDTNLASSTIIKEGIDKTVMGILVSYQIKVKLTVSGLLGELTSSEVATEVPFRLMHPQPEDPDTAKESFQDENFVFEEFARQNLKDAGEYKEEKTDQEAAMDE

## O=P(O)(O)O[C@@H]1[C@H](O)[C@H](O)[C@@H](OP(=O)(O)O)[C@H](OP(=O)(O)O)[C@H]1O [InsP3, (1,4,5) myo-D-inositol triphosphate]
Arr1
  relative affinity for Arr1 (in words): somewhat lower affinity; also recorded: lower relative affinity
Bovine arrestin-1
  C-tail flexibility by cwEPR (sites T396 and A401): slightly more flexibility than InsP6
